What all share (type): biochemical
One test has as its target T1, c-Met (Homo sapiens, UniProt P08581).
T1 construct: Kinases are expressed as either kinase domains or full length constructs; made in house
Put plainly: Kinase inhibition assay (33P transfer), c-Met. The following applies: Table 2, kinase inhibition class; read-out: Met-1. Summed up: (§1)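 GST/His-fusion kinases, E. coli or High Five expressed, affinity purified; 33P-ATP, plate-coated poly(Glu,Tyr) 4:1 or poly(Arg,Ser) 3:1; 0.5% H3PO4 wash, scintillant, LSC.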

The next test deals with T2, AKT (Homo sapiens, UniProt Q9Y243).
T2 construct: Kinases are expressed as either kinase domains or full length constructs; made in house
Put plainly: Kinase inhibition assay (33P transfer), AKT. The following applies: Table 2, kinase inhibition class; read-out: AKT3-1. The method in brief:
(§2)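 Kinase domain or full-length constructs, GST- or polyHis-tagged, expressed in E. coli or baculovirus-High Five cells, sometimes with regulatory polypeptides. Activity measured as 33PO4 transfer from ATP to plate-bound poly(Glu,Tyr) 4:1 or poly(Arg,Ser) 3:1; after incubation, plates washed with 0.5% phosphoric acid and counted by liquid scintillation.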

The target of a further test is T3, EGFR (Homo sapiens, UniProt P00533).
T3 construct: Kinases are expressed as either kinase domains or full length constructs; made in house
Put plainly: Kinase inhibition assay (33P transfer), EGFR. The following applies: Table 2, kinase inhibition class; read-out: EGFR-1. The method in brief: as §1

For another test, the target named is T4, FGFR1 (Homo sapiens, UniProt P11362).
T4 construct: Kinases are expressed as either kinase domains or full length constructs; made in house
Put plainly: Kinase inhibition assay (33P transfer), FGFR1. The following applies: read-out: FGFR1-1.

The target in another test is T5, PDGFRB (Homo sapiens, UniProt P09619).
T5 construct: Kinases are expressed as either kinase domains or full length constructs; made in house
Put plainly: Kinase inhibition assay (33P transfer), PDGFRB. The following applies: read-out: PDGFRB-1.

The target in a further test is T6, Flt-1 (Homo sapiens, UniProt P17948).
T6 construct: Kinases are expressed as either kinase domains or full length constructs; made in house
Put plainly: Kinase inhibition assay (33P transfer), Flt-1. Summed up:
as §1

For another test, the target named is T7, Kdr (Homo sapiens, UniProt P35968).
T7 construct: Kinases are expressed as either kinase domains or full length constructs; made in house
Put plainly: Kinase inhibition assay (33P transfer), Kdr. The following applies: Table 3; read-out: KDR-1. The method in brief:
as §2

For a further test, the target named is T8, Itk (Homo sapiens, UniProt Q08881).
T8 construct: Kinases are expressed as either kinase domains or full length constructs; made in house
T8 sequence (Q08881 1-620): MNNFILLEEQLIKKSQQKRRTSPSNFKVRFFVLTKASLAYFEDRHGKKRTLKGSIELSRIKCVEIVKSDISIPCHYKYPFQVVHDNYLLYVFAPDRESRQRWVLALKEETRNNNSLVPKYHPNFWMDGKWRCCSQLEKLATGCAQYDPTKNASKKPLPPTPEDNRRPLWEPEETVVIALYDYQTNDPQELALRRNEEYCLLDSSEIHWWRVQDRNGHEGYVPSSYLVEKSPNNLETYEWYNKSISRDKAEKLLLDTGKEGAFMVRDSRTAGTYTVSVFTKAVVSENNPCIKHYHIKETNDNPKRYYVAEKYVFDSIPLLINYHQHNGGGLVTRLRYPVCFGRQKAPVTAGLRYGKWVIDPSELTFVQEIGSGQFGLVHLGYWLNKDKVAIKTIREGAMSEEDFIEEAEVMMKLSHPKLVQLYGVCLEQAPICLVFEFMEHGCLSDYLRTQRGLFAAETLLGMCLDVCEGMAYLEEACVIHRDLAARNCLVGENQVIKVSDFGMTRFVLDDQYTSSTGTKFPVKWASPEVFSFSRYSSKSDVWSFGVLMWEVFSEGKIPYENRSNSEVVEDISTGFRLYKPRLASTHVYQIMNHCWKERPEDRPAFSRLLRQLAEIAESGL
Put plainly: Kinase inhibition assay (33P transfer), Itk. The following applies: Table 3; read-out: Itk-1. Summed up:
as §1

The target in the next test is T9, Src (Homo sapiens, UniProt P12931).
T9 construct: Kinases are expressed as either kinase domains or full length constructs; made in house
Put plainly: Kinase inhibition assay (33P transfer), Src. The following applies: Table 6, Src-1 kinase inhibition class. The method in brief:
as §1

The next test deals with T10, Lck (Homo sapiens, UniProt P06239).
T10 construct: Kinases are expressed as either kinase domains or full length constructs; made in house
Put plainly: Kinase inhibition assay (33P transfer), Lck. The following applies: Table 3; read-out: Lck-1. Summed up:
as §2

Another test deals with T11, IGFR-1 (Homo sapiens, UniProt P08069).
T11 construct: Kinases are expressed as either kinase domains or full length constructs; made in house
Put plainly: Kinase inhibition assay (33P transfer), IGFR-1. The following applies: Table 2, kinase inhibition class.

A further test concerns the target T12, Hck-1 (Homo sapiens, UniProt P08631).
T12 construct: Kinases are expressed as either kinase domains or full length constructs; made in house
Put plainly: Kinase inhibition assay (33P transfer), Hck. The following applies: Table 6, Hck-1 kinase inhibition class.

The next test has as its target T13, Fyn (Homo sapiens, UniProt P06241).
T13 construct: Kinases are expressed as either kinase domains or full length constructs; made in house
Put plainly: Kinase inhibition assay (33P transfer), Fyn. The following applies: read-out: Fyn-1. The method in brief: as §1

T12 sequence (P08631 whole entry, the tested form may be a part): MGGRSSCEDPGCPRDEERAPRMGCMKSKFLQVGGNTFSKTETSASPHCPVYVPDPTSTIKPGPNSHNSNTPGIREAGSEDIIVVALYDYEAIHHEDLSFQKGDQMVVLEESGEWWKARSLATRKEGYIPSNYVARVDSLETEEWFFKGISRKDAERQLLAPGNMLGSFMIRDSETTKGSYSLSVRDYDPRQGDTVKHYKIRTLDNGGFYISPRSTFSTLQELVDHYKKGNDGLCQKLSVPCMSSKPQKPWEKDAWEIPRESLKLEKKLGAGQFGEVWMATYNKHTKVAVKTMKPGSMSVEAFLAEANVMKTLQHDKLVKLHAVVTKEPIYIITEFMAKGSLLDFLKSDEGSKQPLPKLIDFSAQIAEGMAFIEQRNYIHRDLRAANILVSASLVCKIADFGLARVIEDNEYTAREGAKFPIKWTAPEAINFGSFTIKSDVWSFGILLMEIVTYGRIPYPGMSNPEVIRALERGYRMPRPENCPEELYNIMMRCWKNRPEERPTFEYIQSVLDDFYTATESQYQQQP
T13 sequence (P06241 whole entry, species assumed, the tested form may be a part): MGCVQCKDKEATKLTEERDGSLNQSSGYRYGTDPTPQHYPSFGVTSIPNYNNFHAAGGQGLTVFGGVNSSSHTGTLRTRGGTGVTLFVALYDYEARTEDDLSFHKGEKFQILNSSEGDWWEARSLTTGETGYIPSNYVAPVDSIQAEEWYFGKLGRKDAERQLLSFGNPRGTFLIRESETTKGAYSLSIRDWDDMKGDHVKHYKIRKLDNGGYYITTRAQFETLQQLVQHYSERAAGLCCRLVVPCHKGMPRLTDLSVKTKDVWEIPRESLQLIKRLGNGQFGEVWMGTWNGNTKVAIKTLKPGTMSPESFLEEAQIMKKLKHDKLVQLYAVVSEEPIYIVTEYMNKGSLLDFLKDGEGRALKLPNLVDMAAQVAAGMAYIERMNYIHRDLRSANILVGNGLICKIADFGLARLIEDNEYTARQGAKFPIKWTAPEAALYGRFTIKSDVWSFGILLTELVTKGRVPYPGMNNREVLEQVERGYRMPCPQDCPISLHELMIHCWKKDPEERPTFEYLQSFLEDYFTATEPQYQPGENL
T5 sequence (P09619 33-1106, species assumed): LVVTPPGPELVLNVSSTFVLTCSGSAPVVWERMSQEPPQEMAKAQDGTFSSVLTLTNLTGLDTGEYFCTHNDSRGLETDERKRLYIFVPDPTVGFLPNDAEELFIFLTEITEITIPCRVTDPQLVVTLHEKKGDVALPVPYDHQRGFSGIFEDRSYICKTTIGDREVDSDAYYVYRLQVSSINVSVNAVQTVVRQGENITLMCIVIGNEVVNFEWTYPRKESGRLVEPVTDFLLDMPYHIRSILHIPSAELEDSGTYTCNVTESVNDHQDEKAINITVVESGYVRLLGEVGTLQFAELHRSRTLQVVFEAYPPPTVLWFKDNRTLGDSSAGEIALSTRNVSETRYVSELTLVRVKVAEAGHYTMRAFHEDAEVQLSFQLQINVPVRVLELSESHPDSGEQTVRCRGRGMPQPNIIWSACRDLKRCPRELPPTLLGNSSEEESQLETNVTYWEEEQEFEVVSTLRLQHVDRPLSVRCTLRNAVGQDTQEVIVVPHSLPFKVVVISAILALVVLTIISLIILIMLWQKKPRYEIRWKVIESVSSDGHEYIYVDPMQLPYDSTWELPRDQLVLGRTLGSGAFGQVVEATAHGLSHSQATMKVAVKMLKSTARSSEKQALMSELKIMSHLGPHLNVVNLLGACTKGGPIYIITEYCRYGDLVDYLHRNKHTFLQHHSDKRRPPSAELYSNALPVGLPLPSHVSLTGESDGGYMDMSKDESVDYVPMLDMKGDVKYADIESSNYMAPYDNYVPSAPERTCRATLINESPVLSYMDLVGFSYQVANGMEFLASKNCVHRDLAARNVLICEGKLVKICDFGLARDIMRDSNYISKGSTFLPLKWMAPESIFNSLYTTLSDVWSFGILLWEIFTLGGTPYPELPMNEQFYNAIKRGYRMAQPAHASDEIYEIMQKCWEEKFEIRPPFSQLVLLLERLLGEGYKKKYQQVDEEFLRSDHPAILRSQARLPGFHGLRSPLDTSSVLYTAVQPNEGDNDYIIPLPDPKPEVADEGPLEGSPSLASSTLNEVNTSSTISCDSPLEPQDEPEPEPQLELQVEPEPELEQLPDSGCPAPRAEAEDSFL
T4 sequence (P11362 22-822, species assumed): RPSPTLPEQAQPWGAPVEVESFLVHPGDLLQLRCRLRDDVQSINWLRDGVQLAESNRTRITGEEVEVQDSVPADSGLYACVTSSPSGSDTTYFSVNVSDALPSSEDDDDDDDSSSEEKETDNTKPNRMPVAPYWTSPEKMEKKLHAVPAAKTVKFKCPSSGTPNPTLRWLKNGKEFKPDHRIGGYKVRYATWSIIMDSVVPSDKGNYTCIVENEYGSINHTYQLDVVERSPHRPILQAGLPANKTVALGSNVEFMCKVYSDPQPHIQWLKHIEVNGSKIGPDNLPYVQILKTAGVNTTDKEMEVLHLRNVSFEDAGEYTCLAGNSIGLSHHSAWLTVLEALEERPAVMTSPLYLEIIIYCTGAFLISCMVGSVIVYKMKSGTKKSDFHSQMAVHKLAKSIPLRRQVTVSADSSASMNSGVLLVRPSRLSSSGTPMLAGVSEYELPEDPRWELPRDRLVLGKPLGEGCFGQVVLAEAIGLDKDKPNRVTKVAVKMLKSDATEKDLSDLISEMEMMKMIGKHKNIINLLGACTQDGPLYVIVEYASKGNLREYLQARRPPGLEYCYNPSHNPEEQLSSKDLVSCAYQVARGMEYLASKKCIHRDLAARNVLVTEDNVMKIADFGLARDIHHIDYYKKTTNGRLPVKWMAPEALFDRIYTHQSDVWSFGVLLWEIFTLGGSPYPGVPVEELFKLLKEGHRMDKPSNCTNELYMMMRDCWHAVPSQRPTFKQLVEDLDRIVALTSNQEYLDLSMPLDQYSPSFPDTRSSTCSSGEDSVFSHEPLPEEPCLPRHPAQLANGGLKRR
T9 sequence (P12931 whole entry, species assumed, the tested form may be a part): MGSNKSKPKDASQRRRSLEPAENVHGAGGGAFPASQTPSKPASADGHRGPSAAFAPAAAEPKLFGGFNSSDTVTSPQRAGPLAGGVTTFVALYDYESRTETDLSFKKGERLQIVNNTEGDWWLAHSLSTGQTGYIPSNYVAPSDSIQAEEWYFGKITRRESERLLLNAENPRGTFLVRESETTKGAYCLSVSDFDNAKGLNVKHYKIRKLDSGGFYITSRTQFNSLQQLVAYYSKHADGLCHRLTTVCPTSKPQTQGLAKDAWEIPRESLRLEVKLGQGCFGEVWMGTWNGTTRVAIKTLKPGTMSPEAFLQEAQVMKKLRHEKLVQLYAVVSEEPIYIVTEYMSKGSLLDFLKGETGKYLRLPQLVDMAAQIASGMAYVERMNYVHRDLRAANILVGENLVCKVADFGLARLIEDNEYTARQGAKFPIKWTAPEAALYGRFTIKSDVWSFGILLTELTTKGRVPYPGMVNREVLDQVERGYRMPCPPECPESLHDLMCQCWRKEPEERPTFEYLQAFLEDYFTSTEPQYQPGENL
T1 sequence (P08581 25-1390): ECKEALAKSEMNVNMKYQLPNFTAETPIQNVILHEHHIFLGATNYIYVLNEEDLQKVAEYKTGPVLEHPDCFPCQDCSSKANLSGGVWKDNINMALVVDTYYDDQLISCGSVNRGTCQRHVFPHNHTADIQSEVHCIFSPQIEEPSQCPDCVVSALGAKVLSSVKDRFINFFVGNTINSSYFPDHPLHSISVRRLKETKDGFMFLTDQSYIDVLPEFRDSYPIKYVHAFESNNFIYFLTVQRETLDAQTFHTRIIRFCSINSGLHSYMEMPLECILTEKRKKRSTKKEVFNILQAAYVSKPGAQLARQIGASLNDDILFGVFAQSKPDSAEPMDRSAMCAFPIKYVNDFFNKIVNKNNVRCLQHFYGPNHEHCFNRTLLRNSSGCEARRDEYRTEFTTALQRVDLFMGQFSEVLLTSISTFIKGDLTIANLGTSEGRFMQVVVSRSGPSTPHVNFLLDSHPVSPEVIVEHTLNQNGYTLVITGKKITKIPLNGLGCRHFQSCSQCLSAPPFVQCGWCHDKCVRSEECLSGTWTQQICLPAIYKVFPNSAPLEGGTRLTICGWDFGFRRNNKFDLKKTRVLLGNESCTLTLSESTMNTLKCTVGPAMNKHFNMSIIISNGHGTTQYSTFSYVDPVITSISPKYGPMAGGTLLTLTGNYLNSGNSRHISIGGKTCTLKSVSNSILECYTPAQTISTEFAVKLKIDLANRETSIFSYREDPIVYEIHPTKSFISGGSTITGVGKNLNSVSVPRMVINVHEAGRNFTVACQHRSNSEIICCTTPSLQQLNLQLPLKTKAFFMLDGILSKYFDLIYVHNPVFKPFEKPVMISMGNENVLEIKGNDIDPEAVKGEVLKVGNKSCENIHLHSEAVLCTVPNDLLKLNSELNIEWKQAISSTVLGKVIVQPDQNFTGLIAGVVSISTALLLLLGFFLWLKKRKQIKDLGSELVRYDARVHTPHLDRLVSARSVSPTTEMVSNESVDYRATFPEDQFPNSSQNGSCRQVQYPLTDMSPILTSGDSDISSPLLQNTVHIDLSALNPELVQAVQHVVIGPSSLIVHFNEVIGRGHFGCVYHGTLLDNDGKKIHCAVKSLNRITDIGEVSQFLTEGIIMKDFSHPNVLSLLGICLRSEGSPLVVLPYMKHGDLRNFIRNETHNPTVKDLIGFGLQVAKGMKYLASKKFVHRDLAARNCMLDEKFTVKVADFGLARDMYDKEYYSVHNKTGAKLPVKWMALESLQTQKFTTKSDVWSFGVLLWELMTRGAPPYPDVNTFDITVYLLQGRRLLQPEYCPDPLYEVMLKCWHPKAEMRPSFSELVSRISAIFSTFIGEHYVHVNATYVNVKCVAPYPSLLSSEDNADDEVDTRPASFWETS

Take `COc1cc(Nc2ncnc(Nc3ccc4cn[nH]c4c3)n2)cc(OC)c1OC` [Compound 70]: the IC50 at c-Met was more than 11.4 µM; at AKT it was more than 11.4 µM; at EGFR it was 1.02 to 6.1 µM; at FGFR1, 1.02 to 6.1 µM; on PDGFRB it was less than 1.02 µM; at Flt-1, less than 1.02 µM. Besides, the IC50 at Kdr was less than 1.02 µM; on Itk it was 8.9 to 11.4 µM; against Src it was less than 1.02 µM; at Lck, 1.02 to 6.1 µM; on IGFR-1 it was 1.02 to 6.1 µM; at Hck-1 it was more than 11.4 µM. At Fyn, the IC50 is more than 11.4 µM.

Regarding `COc1cc(Nc2ncnc(Nc3cccc(Br)c3)n2)cc(OC)c1OC` [Compound 75], the IC50 on c-Met is 8.1 to 10.4 µM; at AKT it was 8.1 to 10.4 µM; at EGFR it was less than 0.925 µM; at FGFR1, 8.1 to 10.4 µM; at PDGFRB, more than 10.4 µM; at Flt-1 it was more than 10.4 µM. In addition, the IC50 at Kdr was 0.925 to 5.55 µM; on Itk, more than 10.4 µM; on Src, 0.925 to 5.55 µM; on Lck, 0.925 to 5.55 µM; against IGFR-1, less than 0.925 µM; on Hck-1 it was more than 10.4 µM. Also, the IC50 on Fyn is 0.925 to 5.55 µM.

For the compound `COc1cc(Nc2ncnc(Nc3ccc(O)cc3Cl)n2)cc(OC)c1OC` [Compound 77], the IC50 on c-Met is more than 11.1 µM; on AKT, more than 11.1 µM; at EGFR, 0.991 to 5.94 µM; on FGFR1 it was 0.991 to 5.94 µM; on PDGFRB it was less than 0.991 µM; against Flt-1, 0.991 to 5.94 µM. The IC50 on Kdr is less than 0.991 µM; at Itk, 8.67 to 11.1 µM; against Src it was 0.991 to 5.94 µM; at Lck, 0.991 to 5.94 µM; against IGFR-1, 0.991 to 5.94 µM; at Hck-1, more than 11.1 µM. The IC50 at Fyn lay in the range of 0.991 to 5.94 µM.

As for `COc1cc(Nc2ncnc(Nc3cccc(O)c3)n2)cc(OC)c1OC` [Compound 78], the IC50 at c-Met was more than 12.2 µM; at AKT, more than 12.2 µM; at EGFR, less than 1.08 µM; at FGFR1, less than 1.08 µM; at PDGFRB, less than 1.08 µM; on Flt-1 it was less than 1.08 µM. The IC50 at Kdr is less than 1.08 µM; at Itk, 1.08 to 6.5 µM; on Src, less than 1.08 µM; at Lck it was 1.08 to 6.5 µM; against IGFR-1 it was 1.08 to 6.5 µM; at Hck-1, 1.08 to 6.5 µM. Further, at Fyn, the IC50 is less than 1.08 µM.

`COc1cc(Nc2ncnc(Nc3ccc4[nH]ncc4c3)n2)cc(OC)c1OC` [Compound 79]: the IC50 on c-Met is 6.1 to 8.9 µM; on AKT it was more than 11.4 µM; at EGFR, less than 1.02 µM; on FGFR1, 6.1 to 8.9 µM; on PDGFRB it was 1.02 to 6.1 µM; against Flt-1, 1.02 to 6.1 µM. In addition, the IC50 at Kdr was less than 1.02 µM; at Itk, less than 1.02 µM; against Src, less than 1.02 µM; on Lck it was less than 1.02 µM; at IGFR-1 it was less than 1.02 µM; against Hck-1, more than 11.4 µM. In addition, the IC50 at Fyn lay in the range of 1.02 to 6.1 µM.

In the case of `COc1cc(Nc2ncnc(Nc3ccc(C)c(O)c3)n2)cc(OC)c1OC` [Compound 83], the IC50 on c-Met was more than 11.7 µM; at AKT it was more than 11.7 µM; at EGFR, less than 1.04 µM; on FGFR1, less than 1.04 µM; at PDGFRB it was less than 1.04 µM; on Flt-1, less than 1.04 µM. The IC50 was less than 1.04 µM on Kdr; 1.04 to 6.26 µM on Itk; less than 1.04 µM on Src; less than 1.04 µM on Lck; 1.04 to 6.26 µM at IGFR-1; 1.04 to 6.26 µM against Hck-1. Besides, the IC50 at Fyn was less than 1.04 µM.

The values above are taken from patent US7074789B2, “Kinase inhibitors” (Amgen Inc., priority 1999, dated 2006).
